# Data as given in ChEMBL document CHEMBL1201862, “PubChem BioAssay data set” (2004).
# Activity calls are given as the source filed them.
# Experiments:
# [1] = target: T1, Bifunctional protein GlmU (Mycobacterium tuberculosis, UniProt P9WMN3); experiment: Inhibitors of Mycobacterial Glucosamine-1-phosphate acetyl transferase (GlmU). Secondary screen.; parameters: species or system Mycobacterium tuberculosis H37Rv
# T1 sequence (P9WMN3 whole entry): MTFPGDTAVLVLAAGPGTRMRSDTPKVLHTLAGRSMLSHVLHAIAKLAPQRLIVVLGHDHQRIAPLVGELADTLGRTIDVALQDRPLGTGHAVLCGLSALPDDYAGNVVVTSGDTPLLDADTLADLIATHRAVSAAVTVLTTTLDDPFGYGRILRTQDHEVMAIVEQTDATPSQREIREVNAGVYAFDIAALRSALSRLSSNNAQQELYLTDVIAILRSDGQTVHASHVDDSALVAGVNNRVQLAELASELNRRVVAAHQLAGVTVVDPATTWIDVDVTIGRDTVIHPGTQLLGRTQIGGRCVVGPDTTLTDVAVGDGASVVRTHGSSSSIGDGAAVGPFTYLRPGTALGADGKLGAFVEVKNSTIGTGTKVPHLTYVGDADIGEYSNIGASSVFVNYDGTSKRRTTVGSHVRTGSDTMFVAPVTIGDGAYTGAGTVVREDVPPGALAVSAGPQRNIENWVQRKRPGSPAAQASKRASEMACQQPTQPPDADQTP
# [2] = target: Induced myeloid leukemia cell differentiation protein Mcl-1 (Homo sapiens, UniProt Q07820); format: functional
# [3] = Luminescence Cell-Based Dose Retest to Confirm Inhibitors of Cancer Stem Cells. [Related pubchem assays (depositor defined):AID2717, AID2721]; format: functional; details: Homo sapiens
# [4] = cytotoxicity in HMLE control line with eGFP shRNA, dose response, counter-screen for HMLE_sh_ECad selective toxicity project, cell-based, HMLE_sh_eGFP, luminescence (AID 463074); format: functional, Homo sapiens;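 note: HMLE human mammary epithelial cells expressing control shRNA against eGFP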
# [5] = target: T2, Polyadenylate-binding protein 1 (Homo sapiens, UniProt P11940); experiment: PABP1 MLLE–PAM2 interaction inhibitors, dose response, miRNA deadenylation inhibitor project, biochemical, fluorescence polarization, Cy5-PAM2 peptide, secondary (AID 602260); format: functional; details: read-out: IC50_Mean
# [6] = target: T2, Polyadenylate-binding protein 1; experiment: PABP1 MLLE–PAM2 binding inhibitor potency, dose response, biochemical, fluorescence polarization, FITC-PAM2 peptide (AID 602259); format: functional; details: read-out: IC50_Mean
# [7] = inhibitors of intracellular T. cruzi replication, confirmation, NIH3T3 host cells, beta-gal luminescence (AID 2044); format: functional, cell-based;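 note: intracellular parasites grown in NIH/3T3 mouse fibroblasts as host cells; luminescent beta-galactosidase reporter signal from transgenic T. cruzi replicating inside host cells; inhibitors lower the luminescence signal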
# [8] = cytotoxicity toward NIH3T3 fibroblasts, dose response, counter-screen, cell-based, ATP luminescence, mouse fibroblasts (AID 2010); format: functional;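 note: cells exposed to compound for about 90 hours before reading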
# [9] = target: Sphingosine 1-phosphate receptor 1 (Homo sapiens, UniProt P21453); experiment: Fluorescence-based counterscreen assay for S1P4 agonists: Cell-based dose response high throughput screening assay to identify agonists of the Sphingosine 1-Phosphate Receptor 1 (S1P1). [Related pubchem assays (depositor defined):AID1509, AID1523, AID1801, AID463107, AID463118, AID463119, AID463122, AID463123, AID463129, AID463225, AID504400, AID504460]; format: functional
# [10] = tested on: Streptococcus sp. 'group A'; experiment: growth inhibition of control SK(-) GAS strain, dose response, counter-screen for streptokinase expression inhibitor project, luminescence, kanamycin, BacTiterGlo, confirmation (AID 1900); format: functional, organism-based
# Streptokinase A = target: T3, Streptokinase A (Streptococcus pyogenes serotype M1, UniProt P10520); experiment: S. pyogenes streptokinase expression inhibitors, potency, dose response, plasminogen activation absorbance, OD405 (AID 1914); format: functional, Streptococcus pyogenes M1 GAS;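 note: secreted streptokinase activity via plasminogen activation per viability signal from cell pellet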
# T3 sequence (P10520 whole entry): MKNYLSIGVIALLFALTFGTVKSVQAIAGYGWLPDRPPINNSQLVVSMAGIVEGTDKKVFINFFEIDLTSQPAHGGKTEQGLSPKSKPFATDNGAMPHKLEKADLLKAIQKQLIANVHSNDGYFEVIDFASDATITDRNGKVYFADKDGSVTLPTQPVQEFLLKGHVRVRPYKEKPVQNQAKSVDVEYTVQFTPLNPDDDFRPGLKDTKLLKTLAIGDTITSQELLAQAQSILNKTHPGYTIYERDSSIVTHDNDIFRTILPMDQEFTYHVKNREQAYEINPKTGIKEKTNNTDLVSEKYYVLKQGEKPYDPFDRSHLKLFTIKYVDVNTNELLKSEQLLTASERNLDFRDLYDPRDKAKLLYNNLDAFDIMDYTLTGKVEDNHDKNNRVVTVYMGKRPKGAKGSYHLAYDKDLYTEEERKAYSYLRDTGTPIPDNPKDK
# [11] = target: Luciferin 4-monooxygenase (Photinus pyralis, UniProt P08659); experiment: firefly luciferase enzyme inhibitors, dose response, biochemical, luminescence (AID 1891)
# Estrogen receptor = target: T4, Estrogen receptor (Homo sapiens, UniProt P03372);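 note: potency for inhibiting coactivator peptide recruitment to the receptor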
# T4 sequence (P03372 whole entry): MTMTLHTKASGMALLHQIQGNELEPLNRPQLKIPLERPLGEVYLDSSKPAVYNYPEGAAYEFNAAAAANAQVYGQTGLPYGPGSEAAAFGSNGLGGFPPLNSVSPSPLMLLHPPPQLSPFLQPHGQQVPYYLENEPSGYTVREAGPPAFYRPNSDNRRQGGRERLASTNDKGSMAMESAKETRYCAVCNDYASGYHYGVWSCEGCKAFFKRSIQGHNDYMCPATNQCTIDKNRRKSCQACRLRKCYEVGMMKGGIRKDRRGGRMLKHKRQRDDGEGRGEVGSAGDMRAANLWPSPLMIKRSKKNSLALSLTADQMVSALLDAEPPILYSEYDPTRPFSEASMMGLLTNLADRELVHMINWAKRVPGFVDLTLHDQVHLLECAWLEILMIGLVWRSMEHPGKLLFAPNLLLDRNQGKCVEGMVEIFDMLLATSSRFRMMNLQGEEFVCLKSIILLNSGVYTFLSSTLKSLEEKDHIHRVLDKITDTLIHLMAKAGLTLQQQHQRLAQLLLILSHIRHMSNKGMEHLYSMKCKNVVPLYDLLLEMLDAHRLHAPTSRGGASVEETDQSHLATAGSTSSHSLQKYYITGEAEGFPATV
# [12] = Luminescence Cell-Based Dose Confirmation HTS to Identify Inhibitors of Platelet Dense Granule Release. [Related pubchem assays: 1663 (Primary HTS), 1678 (Summary of Project)]; format: functional
# [13] = target: Sphingosine 1-phosphate receptor 4 (Homo sapiens, UniProt O95977); experiment: Fluorescence dose response cell-based high throughput screening assay for agonists of the Sphingosine 1-Phosphate Receptor 4 (S1P4). [Related pubchem assays: 1509 (Primary screen.), 1523 (Confirmation screen in triplicates.)]; format: functional
# Estrogen receptor beta [14] = target: T5, Estrogen receptor beta (Homo sapiens, UniProt Q92731);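 note: recombinant ER-beta bound to coactivator SRC1 peptide in presence of estradiol agonist; inhibitors block coactivator peptide binding and lower the FRET signal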
# Estrogen receptor beta [15] = target: T5, Estrogen receptor beta; experiment: ERβ–SRC-3 coactivator interaction inhibitors, confirmation, orthogonal assay, biochemical, ELISA, streptavidin-HRP readout (AID 1060)
# Streptococcus = experiment: Group A Streptococcus viability loss, dose response, counter-screen for streptokinase expression inhibitor project, luminescence, BacTiterGlo (AID 1915); format: functional, organism-based;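 note: potency for reduction of bacterial viability or growth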
# [16] = target: Sphingosine 1-phosphate receptor 2 (Homo sapiens, UniProt O95136); experiment: Dose Response Cell Based Assay for Agonists of the S1P2 Receptor. [Related pubchem assays: 729, 736, 843 ]; format: functional
# CAAX prenyl protease 1 = CAAX prenyl protease 1 (Saccharomyces cerevisiae S288c, UniProt P47154); experiment: Ste24 protease inhibitors, dose response, biochemical, S. cerevisiae, plate reader, cherry-pick (AID 488815)
# [17] = target: Dual specificity protein kinase CLK1 (Homo sapiens, UniProt P49759); experiment: CLK1 kinase inhibitors, off-target check, dose response, selectivity assay for Dyrk1A inhibitor project, biochemical, cherry-picked samples (AID 588811)
# BJ [18] = experiment: cytotoxicity toward BJ-TERT fibroblasts, dose response, cell-based, RAS-independent, luminescence (AID 1933); format: functional; details: Homo sapiens
# BJ [19] = experiment: cells; format: functional, cell-based; details: Homo sapiens
# BJ [20] = experiment: cytotoxicity toward BJ-TERT-LT-ST fibroblasts, dose response, cell-based, RAS-independent, luminescence (AID 1935); format: functional; details: Homo sapiens;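 note: BJ fibroblasts immortalized with TERT plus LT and ST oncogenes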
# [21] = cytotoxicity toward DRD oncogenic fibroblasts, dose response, cell-based, non-viral oncogenic, luminescence (AID 1934); format: functional; details: Homo sapiens
# [22] = cytotoxicity in HEK-293T cells, dose response, cytotoxicity control for TCR NF-kB inhibitor project, luminescence, T-cell screen hits (AID 489026); format: functional, cell-based;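 note: cells exposed to compound about 14 hours before the viability readout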
# BJ [23] = experiment: cytotoxicity toward Ras-transformed BJeLR fibroblasts, dose response, cell-based, alamar blue fluorescence, cherrypicked samples (AID 2631); format: functional; details: Homo sapiens;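 note: confirmatory dose-response assay in RAS-dependent BJ fibroblasts engineered with TERT, LT and ST, with cytotoxicity read by fluorescence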
# [24] = MDA-MB-231 cell growth inhibition, dose response, cytotoxicity control for RAD54 inhibitor project, CellTiter-Glo luminescence, cherry-pick (AID 651692); format: functional, cell-based
# [25] = target: T6, DNA repair and recombination protein RAD54-like (Homo sapiens, UniProt Q92698); experiment: inhibitors of human RAD54 branch migration, confirmation, biochemical, fluorescence, cherry-picked samples, dose series (AID 651657); format: functional
# T6 sequence (Q92698 whole entry): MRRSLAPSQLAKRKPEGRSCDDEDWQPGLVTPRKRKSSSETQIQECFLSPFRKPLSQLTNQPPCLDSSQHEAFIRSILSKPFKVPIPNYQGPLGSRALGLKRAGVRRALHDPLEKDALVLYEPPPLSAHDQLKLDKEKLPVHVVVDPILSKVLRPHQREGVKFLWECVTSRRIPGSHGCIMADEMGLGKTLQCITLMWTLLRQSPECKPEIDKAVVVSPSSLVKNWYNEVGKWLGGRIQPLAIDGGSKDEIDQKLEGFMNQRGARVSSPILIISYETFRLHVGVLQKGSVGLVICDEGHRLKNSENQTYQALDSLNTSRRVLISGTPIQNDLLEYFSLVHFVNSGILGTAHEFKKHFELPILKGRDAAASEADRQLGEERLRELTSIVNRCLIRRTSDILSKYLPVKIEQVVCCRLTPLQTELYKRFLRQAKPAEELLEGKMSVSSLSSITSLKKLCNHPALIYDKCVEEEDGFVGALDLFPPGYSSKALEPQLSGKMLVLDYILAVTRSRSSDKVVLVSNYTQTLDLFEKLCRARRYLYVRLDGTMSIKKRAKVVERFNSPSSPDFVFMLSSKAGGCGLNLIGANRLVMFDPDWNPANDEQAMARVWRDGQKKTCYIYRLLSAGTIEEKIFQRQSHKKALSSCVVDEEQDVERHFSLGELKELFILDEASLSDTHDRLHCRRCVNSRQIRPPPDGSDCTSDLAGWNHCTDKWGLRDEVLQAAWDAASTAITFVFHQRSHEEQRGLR
# [26] = target: T7, DNA repair protein RAD52 homolog (Homo sapiens, UniProt P43351); format: functional, biochemical
# T7 sequence (P43351 whole entry): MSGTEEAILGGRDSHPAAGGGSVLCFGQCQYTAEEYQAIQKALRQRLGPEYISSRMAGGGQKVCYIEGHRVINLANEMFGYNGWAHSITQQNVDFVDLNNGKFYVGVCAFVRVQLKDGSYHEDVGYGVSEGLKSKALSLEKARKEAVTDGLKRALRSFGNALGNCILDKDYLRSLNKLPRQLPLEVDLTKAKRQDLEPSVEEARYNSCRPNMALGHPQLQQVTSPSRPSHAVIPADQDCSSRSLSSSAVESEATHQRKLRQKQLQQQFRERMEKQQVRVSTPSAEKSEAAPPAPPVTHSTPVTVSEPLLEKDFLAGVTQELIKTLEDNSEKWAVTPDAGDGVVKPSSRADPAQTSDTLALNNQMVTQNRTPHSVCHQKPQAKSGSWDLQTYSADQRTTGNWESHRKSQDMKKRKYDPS
# Paired box protein Pax-8 = Paired box protein Pax-8 (Homo sapiens, UniProt Q06710); experiment: inhibitors of PAX8-driven TPO luciferase reporter, dose response, RMG-I cells, cherry-pick (AID 687027); format: functional, cell-based;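 note: luciferase reporter driven by Pax8 target thyroperoxidase promoter measured by SteadyGlo luminescence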
# [27] = Luminescence-based cell-based high throughput dose response assay to identify activators of the DAF-12 from the parasite S. stercoralis (ssDAF-12).; format: functional
# T2 sequence (P11940 whole entry): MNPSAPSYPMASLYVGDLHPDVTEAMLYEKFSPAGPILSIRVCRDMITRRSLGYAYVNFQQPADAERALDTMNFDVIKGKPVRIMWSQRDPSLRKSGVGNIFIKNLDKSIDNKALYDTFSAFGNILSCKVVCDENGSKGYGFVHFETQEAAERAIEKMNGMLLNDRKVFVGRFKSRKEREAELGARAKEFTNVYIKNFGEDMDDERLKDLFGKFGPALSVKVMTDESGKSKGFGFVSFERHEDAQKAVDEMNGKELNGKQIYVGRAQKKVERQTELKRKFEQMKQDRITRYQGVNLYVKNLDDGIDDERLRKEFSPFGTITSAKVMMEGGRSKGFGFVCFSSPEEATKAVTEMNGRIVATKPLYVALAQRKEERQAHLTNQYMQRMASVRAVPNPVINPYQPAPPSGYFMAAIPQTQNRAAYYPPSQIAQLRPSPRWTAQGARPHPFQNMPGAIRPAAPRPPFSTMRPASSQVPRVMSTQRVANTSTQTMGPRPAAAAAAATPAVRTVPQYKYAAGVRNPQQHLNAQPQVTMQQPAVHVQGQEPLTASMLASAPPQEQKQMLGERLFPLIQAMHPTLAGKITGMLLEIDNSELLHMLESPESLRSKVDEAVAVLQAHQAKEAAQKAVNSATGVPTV
# Sequence of Sphingosine 1-phosphate receptor 4 (O95977 whole entry): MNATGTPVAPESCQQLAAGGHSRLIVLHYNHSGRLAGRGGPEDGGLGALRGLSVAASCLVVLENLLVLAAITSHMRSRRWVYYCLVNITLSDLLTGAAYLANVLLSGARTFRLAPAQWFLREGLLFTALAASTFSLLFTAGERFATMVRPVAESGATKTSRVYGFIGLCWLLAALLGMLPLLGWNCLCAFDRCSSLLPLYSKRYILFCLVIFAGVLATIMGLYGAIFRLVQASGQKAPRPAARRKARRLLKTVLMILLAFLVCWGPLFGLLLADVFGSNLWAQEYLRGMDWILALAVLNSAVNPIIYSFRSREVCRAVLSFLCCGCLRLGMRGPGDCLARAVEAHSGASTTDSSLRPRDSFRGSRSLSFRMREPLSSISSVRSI
# Sequence of Sphingosine 1-phosphate receptor 1 (P21453 whole entry): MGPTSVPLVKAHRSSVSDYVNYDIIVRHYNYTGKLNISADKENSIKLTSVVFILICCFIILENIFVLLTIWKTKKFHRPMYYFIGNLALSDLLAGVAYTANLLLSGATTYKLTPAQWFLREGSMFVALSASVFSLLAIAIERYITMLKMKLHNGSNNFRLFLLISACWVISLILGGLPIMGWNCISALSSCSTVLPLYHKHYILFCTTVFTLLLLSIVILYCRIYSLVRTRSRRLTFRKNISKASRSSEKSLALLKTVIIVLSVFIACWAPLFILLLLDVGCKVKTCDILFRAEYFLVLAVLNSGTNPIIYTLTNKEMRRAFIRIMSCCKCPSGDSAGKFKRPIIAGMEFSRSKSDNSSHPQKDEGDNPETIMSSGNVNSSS
# T5 sequence (Q92731 whole entry): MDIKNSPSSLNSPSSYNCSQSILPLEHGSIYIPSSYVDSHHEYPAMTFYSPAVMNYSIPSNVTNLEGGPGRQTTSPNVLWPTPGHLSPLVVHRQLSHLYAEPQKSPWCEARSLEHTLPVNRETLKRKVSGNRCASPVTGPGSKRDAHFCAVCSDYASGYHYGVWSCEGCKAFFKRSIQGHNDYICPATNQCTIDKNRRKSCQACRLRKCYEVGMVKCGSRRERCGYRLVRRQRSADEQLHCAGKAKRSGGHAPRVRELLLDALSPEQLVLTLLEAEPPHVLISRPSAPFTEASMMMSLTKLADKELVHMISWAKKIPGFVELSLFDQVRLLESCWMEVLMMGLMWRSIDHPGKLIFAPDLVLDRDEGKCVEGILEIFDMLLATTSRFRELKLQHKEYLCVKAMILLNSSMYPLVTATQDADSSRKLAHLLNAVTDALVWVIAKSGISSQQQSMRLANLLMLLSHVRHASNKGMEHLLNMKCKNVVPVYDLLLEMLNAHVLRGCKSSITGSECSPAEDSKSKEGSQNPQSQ
# Sequence of CAAX prenyl protease 1 (P47154 whole entry): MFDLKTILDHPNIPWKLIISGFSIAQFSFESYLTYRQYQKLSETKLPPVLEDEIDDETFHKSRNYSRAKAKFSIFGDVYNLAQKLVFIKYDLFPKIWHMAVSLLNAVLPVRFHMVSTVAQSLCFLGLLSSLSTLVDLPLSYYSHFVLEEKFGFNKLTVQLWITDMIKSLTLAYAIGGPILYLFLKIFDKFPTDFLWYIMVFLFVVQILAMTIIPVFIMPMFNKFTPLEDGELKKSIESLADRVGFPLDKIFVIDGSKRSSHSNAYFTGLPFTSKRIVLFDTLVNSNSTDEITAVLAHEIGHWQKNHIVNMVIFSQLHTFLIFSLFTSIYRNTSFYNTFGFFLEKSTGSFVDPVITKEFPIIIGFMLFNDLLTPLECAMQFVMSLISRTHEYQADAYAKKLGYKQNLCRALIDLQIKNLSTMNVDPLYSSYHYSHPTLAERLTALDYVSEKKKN
# Sequence of Paired box protein Pax-8 (Q06710 whole entry): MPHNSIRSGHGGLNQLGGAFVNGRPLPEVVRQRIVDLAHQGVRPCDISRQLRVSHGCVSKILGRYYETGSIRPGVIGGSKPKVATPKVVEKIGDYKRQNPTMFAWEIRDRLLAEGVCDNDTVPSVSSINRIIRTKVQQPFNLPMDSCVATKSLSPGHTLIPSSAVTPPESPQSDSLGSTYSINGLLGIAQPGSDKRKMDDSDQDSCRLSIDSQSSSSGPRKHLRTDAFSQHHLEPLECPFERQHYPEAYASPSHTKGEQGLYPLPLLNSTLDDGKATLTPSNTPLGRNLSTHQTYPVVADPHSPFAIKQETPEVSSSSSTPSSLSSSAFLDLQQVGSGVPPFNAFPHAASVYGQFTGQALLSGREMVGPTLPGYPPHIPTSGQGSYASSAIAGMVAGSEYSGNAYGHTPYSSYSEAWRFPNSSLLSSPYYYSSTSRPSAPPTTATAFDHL
# Sequence of Luciferin 4-monooxygenase (P08659 whole entry): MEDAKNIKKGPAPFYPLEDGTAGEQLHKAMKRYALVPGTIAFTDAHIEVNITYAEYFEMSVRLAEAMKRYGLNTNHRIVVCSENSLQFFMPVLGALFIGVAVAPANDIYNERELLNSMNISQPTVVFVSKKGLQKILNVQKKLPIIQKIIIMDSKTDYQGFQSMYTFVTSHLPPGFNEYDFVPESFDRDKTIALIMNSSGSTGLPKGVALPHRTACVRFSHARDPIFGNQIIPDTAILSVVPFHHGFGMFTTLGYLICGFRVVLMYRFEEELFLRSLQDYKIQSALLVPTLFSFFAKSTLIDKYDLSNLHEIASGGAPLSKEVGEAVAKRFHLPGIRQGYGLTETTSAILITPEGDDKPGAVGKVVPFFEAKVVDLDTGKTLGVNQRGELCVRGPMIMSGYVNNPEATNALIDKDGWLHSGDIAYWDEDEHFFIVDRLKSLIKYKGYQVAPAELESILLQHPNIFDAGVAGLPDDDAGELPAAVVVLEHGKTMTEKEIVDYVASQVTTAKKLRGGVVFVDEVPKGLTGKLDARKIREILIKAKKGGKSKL
# Sequence of Dual specificity protein kinase CLK1 (P49759 whole entry): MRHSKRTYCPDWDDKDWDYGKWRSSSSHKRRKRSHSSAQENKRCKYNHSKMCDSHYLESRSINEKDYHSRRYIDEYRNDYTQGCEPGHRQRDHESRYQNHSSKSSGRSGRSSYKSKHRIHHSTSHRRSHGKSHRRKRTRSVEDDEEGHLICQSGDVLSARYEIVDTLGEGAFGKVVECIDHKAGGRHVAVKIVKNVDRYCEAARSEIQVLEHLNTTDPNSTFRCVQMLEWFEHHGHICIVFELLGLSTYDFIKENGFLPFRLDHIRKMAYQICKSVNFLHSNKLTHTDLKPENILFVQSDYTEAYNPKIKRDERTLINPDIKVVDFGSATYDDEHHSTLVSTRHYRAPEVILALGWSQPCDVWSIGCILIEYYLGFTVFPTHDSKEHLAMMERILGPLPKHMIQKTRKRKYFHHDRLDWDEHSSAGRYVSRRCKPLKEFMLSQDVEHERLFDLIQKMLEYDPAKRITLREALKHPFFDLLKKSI
# Sequence of Induced myeloid leukemia cell differentiation protein Mcl-1 (Q07820 whole entry): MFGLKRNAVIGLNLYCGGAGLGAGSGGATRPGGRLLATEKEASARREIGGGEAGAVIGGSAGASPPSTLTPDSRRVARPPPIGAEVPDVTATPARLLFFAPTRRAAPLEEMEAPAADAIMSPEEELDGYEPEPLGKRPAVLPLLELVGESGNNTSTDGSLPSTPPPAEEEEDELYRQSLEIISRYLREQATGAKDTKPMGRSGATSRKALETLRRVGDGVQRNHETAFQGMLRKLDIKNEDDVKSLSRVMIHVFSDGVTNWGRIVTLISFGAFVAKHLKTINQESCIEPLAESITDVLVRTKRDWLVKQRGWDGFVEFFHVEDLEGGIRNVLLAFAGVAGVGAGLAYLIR
# Sequence of Sphingosine 1-phosphate receptor 2 (O95136 whole entry): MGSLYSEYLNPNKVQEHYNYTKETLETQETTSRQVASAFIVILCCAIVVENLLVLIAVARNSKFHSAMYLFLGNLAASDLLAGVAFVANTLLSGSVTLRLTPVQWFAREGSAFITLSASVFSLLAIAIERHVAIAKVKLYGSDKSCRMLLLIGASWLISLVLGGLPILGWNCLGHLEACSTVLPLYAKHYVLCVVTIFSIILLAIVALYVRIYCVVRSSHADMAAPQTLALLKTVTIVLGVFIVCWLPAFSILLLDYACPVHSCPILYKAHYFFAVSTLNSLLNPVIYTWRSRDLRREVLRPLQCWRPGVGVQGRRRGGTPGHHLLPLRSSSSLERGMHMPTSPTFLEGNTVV
smiles,measurement,setting,value
O=C1NN(c2cccc(F)c2)C(=O)/C1=C1\C(=O)Nc2ccccc21,IC50,[1],199 µM (active)
same,IC50,[2],< 0.4 µM (active)
same,AC50,[3],4.9 µM (active)
same,AC50,[4],43.3 µM (active)
same,IC50,[5],> 66 µM (inactive)
same,IC50,[6],> 66 µM (inactive)
COc1cc(-c2nc(-c3ccccc3)c(-c3cccs3)[nH]2)cc(OC)c1OC,EC50,[7],1.21 µM (active)
same,EC50,[8],> 30 µM (not active)
same,AC50,[3],50.3 µM (active)
same,AC50,[4],29.9 µM (active)
O=C(NCc1ccco1)c1cc2ccc(O)cc2oc1=O,EC50,[9],5.05 µM (active)
same,EC50,[10],7.99 µM (active)
same,EC50,Streptokinase A,> 150 µM (not active)
same,EC50,[11],0.288 µM (active)
same,IC50,Estrogen receptor,14.3 µM (active)
same,EC50,[12],1.82 µM (active)
same,EC50,[13],1.84 µM (active)
same,IC50,Estrogen receptor beta [14],3.57 µM (active)
same,IC50,Estrogen receptor beta [15],> 50 µM (not active)
same,EC50,Streptococcus,13.3 µM (active)
same,EC50,[16],3.28 µM (active)
CC1=CC2=NC(=O)CC(C)(C(=O)N(CC(=O)NC3CCCC3)Cc3ccccc3)N2C=C1 (stereo not drawn),AC50,CAAX prenyl protease 1,11.5 µM (active)
Cc1csc(CN(C)c2ncnc3ccc(-c4ccc5c(c4)OCO5)cc23)n1,AC50,[17],2.23 µM (active)
O=C1c2cccc3cc([N+](=O)[O-])cc(c23)C(=O)N1CCN1CCCC1 [PINAFIDE],EC50,[9],3.11 µM (active)
same,EC50,BJ [18],5.47 µM (inconclusive)
same,EC50,BJ [19],9.59 µM (active)
same,EC50,[13],> 5.53 µM (not active)
same,EC50,BJ [20],> 150 µM (inconclusive)
same,EC50,[21],5.03 µM (inconclusive)
same,IC50,[22],> 80 µM (inactive)
same,EC50,BJ [23],0.478 µM (active)
same,IC50,[5],> 66 µM (inactive)
same,IC50,[6],44.7 µM (inactive)
same,AC50,[24],16 µM (inactive)
same,AC50,[25],2.94 µM (active)
same,AC50,[26],8.44 µM (active)
same,AC50,Paired box protein Pax-8,0.87 µM (active)
same,IC50,[27],> 67.5 µM (inactive)
